According to patent US9988430B2, “Stable GLP-1 based GLP-1/glucagon receptor co-agonists” (Novo Nordisk A/S, priority 2014, dated 2018):
*1 amine or outer side, *2 acyl side, *3 side chain or, on linkers, in order; H or OH if unused. Where a SMILES comes first, the peptide text is derived from it. Side-chain parts run from the residue outwards. [ ]: non-standard residue; d: D form. The star is where a group is joined. C18 diacid = O=C(O)CCCCCCCCCCCCCCCCC(=O)*; γGlu = O=C(O)[C@H](CCC(=O)[*:2])N[*:1]; Desaminohistidyl = O=C(CCc1c[nH]cn1)*; Ac4c = NC1(C(=O)O)CCC1; AEEA = NCCOCCOCC(=O)O

Experiments:
[1] = biological target: T1, human GLP-1 receptor (Homo sapiens, UniProt P43220); experiment: Assay (II)(a): GLP-1 receptor binding, [125I]GLP-1 displacement, SPA on BHK membranes; settings: displacement of [125I]GLP-1, membranes with human GLP-1 receptor; read-out: IC50 GLP-1R
T1 construct: expressed in transfected cells; host or cells: membranes of BHK cells, parent line BHKTS13, clone FCW467-12A
T1 sequence (P43220 24-463): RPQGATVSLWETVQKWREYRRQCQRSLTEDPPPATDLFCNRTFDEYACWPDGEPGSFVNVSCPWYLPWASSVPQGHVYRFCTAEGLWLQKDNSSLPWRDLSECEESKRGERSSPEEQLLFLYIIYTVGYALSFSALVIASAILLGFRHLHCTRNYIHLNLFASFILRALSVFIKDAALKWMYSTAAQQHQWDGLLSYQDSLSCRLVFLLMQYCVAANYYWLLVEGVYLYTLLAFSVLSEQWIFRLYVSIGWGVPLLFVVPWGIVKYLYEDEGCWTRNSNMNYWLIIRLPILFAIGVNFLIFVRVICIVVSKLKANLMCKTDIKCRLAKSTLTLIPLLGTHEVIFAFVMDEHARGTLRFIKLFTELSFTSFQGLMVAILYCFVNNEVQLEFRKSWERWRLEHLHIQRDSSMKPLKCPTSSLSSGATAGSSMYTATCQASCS
Protocol: Assay (II): GLP-1 and Glucagon Receptor Binding The purpose of this assay is to test the in vitro receptor binding activity of the GLP-1 derivatives of the invention. (a) GLP-1 Receptor Binding The GLP-1 receptor (GLP-1R) binding is a measure of the affinity of a derivative for the human GLP-1 receptor. The GLP-1 receptor binding of each derivatives were determined with competitive binding, displacing [^125I]GLP-1 bound to GLP-1 receptors expressed in cell membranes associated with wheat germ agglutinin (WGA) scintillation proximity assay (SPA) beads. Each derivative was added in a series of concentrations to isolated membranes comprising the human GLP-1 receptor and displacement of the labelled radioligand was monitored. The receptor binding was reported as the concentration at which half of the labelled ligand is displaced from the receptor, the IC^50 value. The following chemicals were used in the assay: MEM w/o phenol red (Gibco 11880-028), Pen/strep (Invitrogen 15140-122), G418 (Invitrogen 10131-027), 1 M Hepes (Gibco 15630), EDTA (Invitrogen 15575-038), PBS (Invitrogen 14190-094), fetal calf serum (Invitrogen 16140-071), EGTA, MgCl2 (Merck 1.05832.1000), Tween 20 (Amresco 0850C335), SPA particles (wheat germ agglutinin (WGA) SPA beads, Perkin Elmer RPNQ0001), [125I]-GLP-1]-(7-36)NH2 (produced in-house), OptiPlate™-96 (Perkin Elmer). Buffer 1 consisted of 20 mM Na-HEPES plus 10 mM EDTA and pH was adjusted to 7.4. Buffer 2 consisted of 20 mM Na-HEPES plus 0.1 mM EDTA and pH was adjusted to 7.4. Assay buffer consisted of 50 mM HEPES supplemented with 5 mM EGTA, 5 mM MgCl2, 0.005% Tween 20 and pH was adjusted to 7.4. A 0.02% albumin stock consisted of HSA dissolved at 0.02% (w/v) in assay buffer. The cells used in this assay (clone FCW467-12A) were BHK cells with BHKTS13 as a parent cell line. The cells express the human GLP-1 receptor. The cells were grown at 5% CO2 in DMEM, 10% fetal calf serum, 1% Pen/Strep (Penicillin/Streptomycin) and 1.0 mg/ml of the selection marker G418. To make a membrane preparation the cells were grown to approximately 80% confluence. The cells were washed twice in phosphate-buffered saline and harvested. The cells were pelleted using a brief centrifugation and the cell pellet was kept on ice. The cell pellet was homogenised with ULTRA-THURRAX dispersing instrument for 20-30 seconds in a suitable amount of buffer 1 (e.g., 10 ml). The homogenate was centrifuged for 15 minutes. The pellet was re-suspended (homogenised) in 10 ml buffer 2 and centrifuged. This step was repeated once more. The resulting pellet was re-suspended in buffer 2 and the protein concentration was determined. The membranes were aliquoted and stored at minus 80° C. • 1. For the receptor binding assay 50 μl of the assay buffer was added to each well of an assay plate. • 2. Test compounds were serially diluted to give the following concentrations: 8×10EE-7 M, 8×10EE-8 M, 8×10EE-9 M, 8×10EE-10 M, 8×10EE-11 M, 8×10EE-12 M and 8×10EE-13 M. Twenty-five μl were added to appropriate wells in the assay plate. • 3. Cell membrane aliquots were thawed and diluted to their working concentration. Fifty μl were added to each well in the assay plate. • 4. WGA SPA beads were suspended in assay buffer at 20 mg/ml. The suspension was diluted to 10 mg/ml in assay buffer just prior to addition to the assay plate. Fifty μl were added to each well in the assay plate. • 5. The incubation was started by adding 25 μl of 480 pM solution of [125I]-GLP-1]-(7-36)NH2 to each well of the assay plate. A 25 μl aliquot was reserved for measuring total counts/well. • 6. The assay plate was incubated for 2 h at 30° C. • 7. The assay plate was centrifuged for 10 min. • 8. The assay plate was read in a Perkin Elmer TopCount NXT instrument. Calculations The data from the TopCount instrument were transferred to GraphPad Prism software. The software averaged the values for the replicates and performed a non-linear regression. IC50 values were calculated by the software and reported in nM. […]

[2] = biological target: T1, human GLP-1 receptor; experiment: Assay (I)(a): GLP-1 receptor potency, CRE luciferase reporter gene assay in BHK cells; assay type: cell-based; settings: BHK cells expressing human GLP-1 receptor, read-out: EC50 GLP-1R
Protocol: Assay (I): GLP-1 and Glucagon Receptor Potency The purpose of this example was to test the activity or potency, of the GLP-1 derivatives of the invention, in vitro. The in vitro potency is the measure of human GLP-1 receptor (GLP-1R) or glucagon receptor (glucagonR) activation, respectively, in a whole cell assay. In vitro potency was determined by measuring the cellular response of human GLP-1 or glucagon receptor activation, respectively, in a reporter gene assay. The assay was performed in a BHK cell line that stably expresses either the human GLP-1 receptor or the human glucagon receptor and comprises the DNA for the cAMP response element (CRE) coupled to a promoter and the gene for firefly luciferase (CRE luciferase). […] When assay incubation was completed, the luciferase substrate (luciferin) was added and the enzyme converted luciferin to oxyluciferin and produces bioluminescence. The luminescence was measured as the readout for the assay. (a) GLP-1 Receptor Activation The cells used in this assay (clone FCW467-12A/KZ10-1) were BHK cells with BHKTS13 as a parent cell line. The cells were derived from a clone (FCW467-12A) that expresses the human GLP-1 receptor and were established by further transfection with CRE luciferase to obtain the current clone. The cells were cultured at 5% CO2 in DMEM medium with 10% FBS, 1×GlutaMAX, 1 mg/ml G418, 240 nM MTX (methotrexate) and 1% pen/strep (penicillin/streptomycin). They were aliquoted and stored in liquid nitrogen. Before each assay, an aliquot was taken up and washed three times in PBS before being suspended at the desired concentration in assay medium. For 96-well plates the suspension was made to give a final concentration of 5×10EE3 cells/well. The following chemicals were used in the assay: Pluronic F-68 (10%) (Gibco 2404), Ovalbumin (Sigma A5503), DMEM w/o phenol red (Gibco 11880-028), 1 M Hepes (Gibco 15630), Glutamax 100× (Gibco 35050) and steadylite plus (PerkinElmer 6016757). Assay Medium consisted of DMEM w/o phenol red, 10 mM Hepes, 1×GlutaMAX, 2% Ovalbumin and 0.2% Pluronic F-68. Cell stocks were thawed in a 37° C. water bath. Cells were washed three times in PBS. The cells were counted and adjusted to 5×10EE3 cells/50 μl (1×10EE5 cells/ml) in Assay Medium. A 50 μl aliquot of cells was transferred to each well in the assay plate. Stocks of the test compounds and reference compounds were diluted to a concentration of […] in Assay Medium. Compounds were diluted 10-fold to give the following concentrations: 2×10EE-6 M, 2×10EE-7 M, 2×10EE-8 M; 2×10EE-9 M, 2×10EE-10 M, 2×10EE-11 M, 2×10EE-12 M and 2×10EE-13 M. For each compound a blank assay medium control was also included. A 50 μl aliquot of compound or blank was transferred from the dilution plate to the assay plate. Compounds were tested at the following final concentrations: 1×10EE-6 M, 1×10EE-7 M, 1×10EE-8 M; 1×10EE-9 M, 1×10EE-10 M, 1×10EE-11 M and 1×10EE-12 M and 1×10EE-13 M. The assay plate was incubated for 3 h in a 5% CO2 incubator at 37° C. The assay plate was removed from the incubator and allowed to stand at room temperature for 15 min. A 100 μl aliquot of steadylite plus reagent was added to each well of the assay plate (reagent is light sensitive). Each assay plate was covered with aluminum foil to protect it from light and shaken for 30 min at room temperature. Each assay plate was read in a Perkin Elmer TopCount NXT instrument. The data from the TopCount instrument was transferred to GraphPad Prism software. The software performed a non-linear regression (log(agonist) vs response-Variable slope (four parameter)). EC50 values were calculated by the software and reported in pM.

IC50 [1] [nM]	EC50 [2] [nM]	SMILES
0.9	0.003	CC[C@H](C)[C@H](NC(=O)[C@H](Cc1ccccc1)NC(=O)[C@H](CCC(=O)O)NC(=O)[C@H](CCCNC(=N)N)NC(=O)[C@H](C)NC(=O)[C@H](C)NC(=O)[C@H](CCC(N)=O)NC(=O)[C@H](CCC(=O)O)NC(=O)[C@H](CCC(=O)O)NC(=O)[C@H](CC(C)C)NC(=O)[C@H](Cc1ccc(O)cc1)NC(=O)[C@H](CCCNC(=N)N)NC(=O)[C@H](CO)NC(=O)[C@H](Cc1ccc(O)cc1)NC(=O)[C@H](CC(=O)O)NC(=O)[C@H](CO)NC(=O)[C@@H](NC(=O)[C@H](Cc1ccccc1)NC(=O)[C@@H](NC(=O)CNC(=O)[C@H](Cc1c[nH]cn1)NC(=O)C1(NC(=O)CCc2c[nH]cn2)CCC1)[C@@H](C)O)[C@@H](C)O)C(=O)N[C@@H](C)C(=O)N[C@@H](Cc1c[nH]c2ccccc12)C(=O)N[C@@H](CC(C)C)C(=O)N[C@@H](CC(C)C)C(=O)N[C@@H](CCCNC(=N)N)C(=O)N[C@@H](CCCCNC(=O)CC[C@H](NC(=O)COCCOCCNC(=O)CC[C@H](NC(=O)COCCOCCNC(=O)CC[C@H](NC(=O)COCCOCCNC(=O)CC[C@H](NC(=O)CC[C@H](NC(=O)CCCCCCCCCCCCCCCCC(=O)O)C(=O)O)C(=O)O)C(=O)O)C(=O)O)C(=O)O)C(N)=O [Example 22, N^ε35-[(4S)-4-carboxy-4-[[2-[2-[2-[[(4S)-4-carboxy-4-[[2-[2-[2-[[(4S)-4-carboxy-4-[[2-[2-[2-[[(4S)-4-carboxy-4-[[(4S)-4-carboxy-4-(17-carboxyheptadecanoylamino)butanoyl]amino]butanoyl]amino]ethoxy]ethoxy]acetyl]amino]butanoyl]amino]ethoxy]ethoxy]acetyl]amino]butanoyl]amino]ethoxy]ethoxy]acetyl]amino]butanoyl]-[Imp7,Acb8,His9,Tyr16,Arg18,Glu22,Arg26,Leu33,Arg34,Lys35]-GLP-1-(7-35)-peptide amide] (Desaminohistidyl-[Ac4c]HGTFTSDYSRYLEEQAAREFIAWLLRK([γGlu-AEEA-γGlu-AEEA-γGlu-AEEA-γGlu-γGlu-C18 diacid])-NH2)
2.3	0.007	CC[C@H](C)[C@H](NC(=O)[C@H](Cc1ccccc1)NC(=O)[C@H](CCC(=O)O)NC(=O)[C@H](CCCNC(=N)N)NC(=O)[C@H](C)NC(=O)[C@H](C)NC(=O)[C@H](CCC(N)=O)NC(=O)[C@H](CCCNC(=N)N)NC(=O)[C@H](CCC(=O)O)NC(=O)[C@H](CC(C)C)NC(=O)[C@H](Cc1ccc(O)cc1)NC(=O)[C@H](CCCCN)NC(=O)[C@H](CO)NC(=O)[C@H](Cc1ccc(O)cc1)NC(=O)[C@H](CC(=O)O)NC(=O)[C@H](CO)NC(=O)[C@@H](NC(=O)[C@H](Cc1ccccc1)NC(=O)[C@@H](NC(=O)CNC(=O)[C@H](Cc1c[nH]cn1)NC(=O)C1(NC(=O)CCc2c[nH]cn2)CCC1)[C@@H](C)O)[C@@H](C)O)C(=O)N[C@@H](C)C(=O)N[C@@H](Cc1c[nH]c2ccccc12)C(=O)N[C@@H](CC(C)C)C(=O)N[C@@H](CC(C)C)C(=O)N[C@@H](CCCCN)C(=O)N[C@@H](CCCCNC(=O)CC[C@H](NC(=O)COCCOCCNC(=O)CC[C@H](NC(=O)COCCOCCNC(=O)CC[C@H](NC(=O)COCCOCCNC(=O)CC[C@H](NC(=O)CC[C@H](NC(=O)CCCCCCCCCCCCCCCCC(=O)O)C(=O)O)C(=O)O)C(=O)O)C(=O)O)C(=O)O)C(N)=O [Example 23, N^ε35-[(4S)-4-carboxy-4-[[2-[2-[2-[[(4S)-4-carboxy-4-[[2-[2-[2-[[(4S)-4-carboxy-4-[[2-[2-[2-[[(4S)-4-carboxy-4-[[(4S)-4-carboxy-4-(17-carboxyheptadecanoylamino)butanoyl]amino]butanoyl]amino]ethoxy]ethoxy]acetyl]amino]butanoyl]amino]ethoxy]ethoxy]acetyl]amino]butanoyl]amino]ethoxy]ethoxy]acetyl]amino]butanoyl]-[Imp7,Acb8,His9,Tyr16,Lys18,Arg22,Arg26,Leu33,Lys35]-GLP-1-(7-35)-peptide amide] (Desaminohistidyl-[Ac4c]HGTFTSDYSKYLERQAAREFIAWLLKK([γGlu-AEEA-γGlu-AEEA-γGlu-AEEA-γGlu-γGlu-C18 diacid])-NH2)
